In US20250268799A1, “MEDIUM FOR WATER-FREE ROOT CANAL DISINFECTANT WITH HIGH FLUIDITY, DISINFECTANT USING SAME, AND USE THEREOF” (WENZHOU QINGCHENG HEALTHCARE TECH LTD., priority 2022, published 2025):

What was measured:
bacteria = conditions: intracanal medicament for one week; cited from earlier work
Enterococcus faecalis = conditions: in vitro direct contact; cited from earlier work
Water dispersion test = type: physicochemical; conditions: 0.5% surfactant added to Paste A
Description: Add appropriate food-grade carmine dye to the above pastes, homogenize thoroughly with a homogenizer so that each paste can be squeezed out from a 25 G root canal irrigation needle, and divide into syringes for use.
S1: Prepare 23 150 mL beakers with similar diameters, fill them with water, and inject one drop (approximately 0.01 g) of each of the 23 pastes (A, B, C, D, E, F, G, H, A1-A15) into each beaker through a 25 G root canal irrigation needle (except G and H).
S2: Observe the color change immediately after preparation.

| Molecule | reduction of bacteria (bacteria) [%] | contact time for complete eradication of Enterococcus faecalis (Enterococcus faecalis) [h] | effect of surfactant on the dispersion of the paste in water (Water dispersion test) |
| --- | --- | --- | --- |
| [Ca+2].[OH-].[OH-] [calcium hydroxide] | 92.5 | 24 | – |
| Polyoxyethylene (60) Hydrogenated Castor Oil [RH60] | – | – | best performance |
| CC(=O)O.CC(=O)O.NC(=N\CCCCCC/N=C(N)/N=C(\N)Nc1ccc(Cl)cc1)/N=C(\N)Nc1ccc(Cl)cc1 [CHX, Chlorhexidine Acetate] | – | – | best performance |
| Fatty Alcohol Polyoxyethylene Ether [AEO-9] | – | – | negative effects |
